Source: patent US20200115357A1, “LIVER X RECEPTORS (LXR) MODULATORS” (Phenex-FXR GmbH, priority 2017, published 2020)

Experiments:
Fasn = test: Short term HFD mouse model, gene expression in liver tissue: Fasn; assay type: in vivo; settings: liver mRNA (qPCR, normalized to Tbp), three oral doses of 20 mg/kg, HFD mice
Protocol: (§1) Short Term HFD Mouse Model:
(§2) The in vivo transcriptional regulation of several LXR target genes by LXR modulators was assessed in mice.
(§3) For this, C57BL/6J were purchased from Elevage Janvier (Rennes, France) at the age of 8 weeks. After an acclimation period of two weeks, animals were preferred on a high fat diet (HFD) (Ssniff Spezialdiaten GmbH, Germany, Surwit EF D12330 mod, Cat. No. E15771-34), with 60 kcal % from fat plus 1% (w/w) extra cholesterol (Sigma-Aldrich, St. Louis, Mo.) for 5 days. Animals were maintained on this diet during treatment with LXR modulators. […]
(§4) Upon termination, liver was collected, dipped in ice cold PBS for 30 seconds and cut into appropriate pieces. […] For the clinical chemistry analysis from plasma, alanine aminotransferase (ALT, IU/mL), cholesterol (CHOL, mg/dL) and triglycerides (TG, mg/dL) were determined using a fully-automated bench top analyzer (Respons®910, DiaSys Greiner GmbH, Flacht, Germany) with system kits provided by the manufacturer. […]
(§5) To obtain total RNA from frozen liver tissue, samples (25 mg liver tissue) were first homogenized with RLA buffer (4M guanidin thiocyanate, 10 mM Tris, 0.97% w:v β-mercapto-ethanol). […] Quantitative PCR was performed and analyzed using Prime time Gene expression master mix (Integrated DNA Technologies, Coralville, Iowa, USA) and a 384-format ABI 7900HT Sequence Detection System (Applied Biosystems, Foster City, USA). […]

Srebp1c = test: Short term HFD mouse model, gene expression in liver tissue: Srebp1c; assay type: in vivo; settings: liver mRNA (qPCR, normalized to Tbp), three oral doses of 20 mg/kg, HFD mice
Protocol: as §1, §2, §3, §4, §5

Scd1 = test: Short term HFD mouse model, gene expression in liver tissue: Scd1; assay type: in vivo; settings: liver mRNA (qPCR, normalized to Tbp), three oral doses of 20 mg/kg, HFD mice
Protocol: as §1, §2, §3, §4, §5

Hepatic LXR target genes = test: Short term HFD mouse model, hepatic LXR target genes (summary in words); assay type: in vivo; settings: multiple oral dosing in mice
Protocol: as §1, §2, §3
as §5, with “USA). The expression of the following genes was analysed: Stearoyl-CoA desaturase1 (Scd1), fatty acid synthase (Fas) and sterol regulatory element-binding protein1 (Srebp1).” for “USA).”

[1] = molecular target: T1, LXRβ ligand-binding domain (LBD) (Homo sapiens, UniProt P55055, DUP175-175); test: LXR Gal4 reporter transient transfection assay (M2H), Gal4β LBD; assay type: cell-based; settings: HEK293 cells; read-out: M2H Gal4β LBD activity range (EC50)
T1 construct: LXRβ (amino acids 156-461); expressed in transfected cells; host or cells: HEK293
T1 sequence (P55055 with tags, fused parts or gaps DUP175-175): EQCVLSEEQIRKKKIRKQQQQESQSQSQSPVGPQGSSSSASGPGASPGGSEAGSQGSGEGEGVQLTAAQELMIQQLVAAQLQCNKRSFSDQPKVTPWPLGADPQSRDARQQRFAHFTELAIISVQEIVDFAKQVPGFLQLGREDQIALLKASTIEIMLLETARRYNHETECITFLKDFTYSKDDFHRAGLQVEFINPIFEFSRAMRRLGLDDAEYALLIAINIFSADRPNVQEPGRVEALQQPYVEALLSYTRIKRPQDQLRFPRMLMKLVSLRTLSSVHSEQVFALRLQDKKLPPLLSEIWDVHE
Outline: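 Mammalian two-hybrid in HEK293 cells transiently transfected with LXRα/β full-length or LBD fused to NFkB activation domain, plus GAL4-DBD fusions of SRC1 coactivator or NCoR corepressor domains and a GAL4-responsive firefly luciferase reporter. Compounds added 4 h post-transfection (vehicle ≤0.2% DMSO), 16 h incubation; firefly luciferase normalized to Renilla.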

| Structure (SMILES) | Fasn suppression compared to vehicle (Fasn) | Srebp1c suppression compared to vehicle (Srebp1c) | Scd1 suppression compared to vehicle (Scd1) | Hepatic LXR target genes (in words) (Hepatic LXR target genes) | EC50 [1] |
| --- | --- | --- | --- | --- | --- |
| Cc1cc(C)c(S(=O)(=O)N(Cc2ccc(C(F)(F)F)o2)Cc2ccc(-c3cccc(C(C)(C)C(=O)O)c3)cc2Cl)c(C)c1 [10/5] | 0.41 | 0.33 | 0.38 | effectively suppressed | < 100 nM |
| Cc1cc(C)c(S(=O)(=O)N(Cc2ccc(-c3cccc(CC(=O)O)c3)cc2)Cc2ccc(C(F)(F)F)o2)c(C)c1 [Example 2, 2-(4′-(((2,4,6-Trimethyl-N-((5-(trifluoromethyl)furan-2-yl)methyl)phenyl)sulfonamido)methyl)-[1,1′-biphenyl]-3-yl)acetic acid] | – | – | – | – | < 100 nM |
| Cc1ccc2ccccc2c1S(=O)(=O)N(Cc1ccc(-c2cccc(C(C)(C)C(=O)O)c2)cc1)Cc1ccc(C(F)(F)F)o1 [Example 24, 2-Methyl-2-(4′-(((2-methyl-N-((5-(trifluoromethyl)furan-2-yl)methyl)naphthalene)-1-sulfonamido)methyl)-[1,1′-biphenyl]-3-yl)propanoic acid] | 0.23 | 0.25 | 0.25 | effectively suppressed | < 100 nM |
| Cc1cc(C)c(S(=O)(=O)N(Cc2ccc(-c3cccc(C(C)(C)C(=O)O)c3)cc2)Cc2ccc(C(F)(F)F)o2)c(C)c1 [7/5] | – | – | – | – | < 100 nM |
| Cc1cc(C)c(S(=O)(=O)N(Cc2ccc(-c3cccc(CC(=O)O)c3)cc2)C(C)c2ccc(C(F)(F)F)o2)c(C)c1 (stereo not shown) [2/2] | – | – | – | – | < 100 nM |
| Cc1cc(C)c(S(=O)(=O)N(Cc2ccc(-c3cc(F)c(CO)c(S(C)(=O)=O)c3)cc2)Cc2ccc(C(F)(F)F)o2)c(C)c1 [Example C3/2] | – | – | – | – | < 100 nM |
| COc1cc(-c2cccc(C(C)(C)C(=O)O)c2)ccc1CN(Cc1ccc(C(F)(F)F)o1)S(=O)(=O)c1c(C)cc(C)cc1C [10/4] | – | – | – | – | < 100 nM |
| Cc1cc(C)c(S(=O)(=O)N(Cc2ccc(-c3cccc(S(=O)(=O)C(C)(C)C(=O)O)c3)cc2)Cc2ccc(C(F)(F)F)o2)c(C)c1 [5/2] | – | – | – | – | 100 to 1000 nM |
